This passage reports inhibition, IC50 and Relative potency results from ChEMBL document CHEMBL1134061, “Synthesis and biological evaluations of condensed pyridine and condensed pyrimidine-based HMG-CoA reductase inhibitors” (Bioorg Med Chem Lett, 2001).

Experiment [1] concerns the target T1, 3-hydroxy-3-methylglutaryl-coenzyme A reductase (Rattus norvegicus) (UniProt P51639).
T1 sequence (whole entry): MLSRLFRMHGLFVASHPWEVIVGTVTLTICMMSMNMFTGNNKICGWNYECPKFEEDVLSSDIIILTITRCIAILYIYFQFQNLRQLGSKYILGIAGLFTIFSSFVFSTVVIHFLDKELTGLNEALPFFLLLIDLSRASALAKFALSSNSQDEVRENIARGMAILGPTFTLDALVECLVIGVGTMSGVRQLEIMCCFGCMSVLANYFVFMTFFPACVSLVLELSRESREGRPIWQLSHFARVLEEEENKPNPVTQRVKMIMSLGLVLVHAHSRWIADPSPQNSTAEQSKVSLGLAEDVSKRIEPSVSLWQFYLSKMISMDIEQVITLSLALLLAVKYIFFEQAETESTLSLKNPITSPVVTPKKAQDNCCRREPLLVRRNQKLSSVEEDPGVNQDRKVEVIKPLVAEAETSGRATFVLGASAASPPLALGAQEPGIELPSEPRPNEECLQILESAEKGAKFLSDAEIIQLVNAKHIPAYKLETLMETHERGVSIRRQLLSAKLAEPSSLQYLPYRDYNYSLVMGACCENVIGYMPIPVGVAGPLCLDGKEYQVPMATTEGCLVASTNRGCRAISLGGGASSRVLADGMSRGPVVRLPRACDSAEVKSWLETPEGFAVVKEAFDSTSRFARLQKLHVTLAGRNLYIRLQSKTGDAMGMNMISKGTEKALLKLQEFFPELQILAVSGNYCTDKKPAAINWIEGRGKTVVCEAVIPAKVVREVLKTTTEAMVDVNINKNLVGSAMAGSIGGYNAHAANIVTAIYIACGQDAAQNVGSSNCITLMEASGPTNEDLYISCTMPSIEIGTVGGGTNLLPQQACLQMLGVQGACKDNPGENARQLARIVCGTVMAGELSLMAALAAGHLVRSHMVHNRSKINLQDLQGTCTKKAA
Put plainly: In vivo hepatic cholesterol synthesis inhibitory activity in male Sprague-Dawley rat after oral administration at a concentration of 0.2 mg/kg. The format is functional, organism-based. The arrangement: dose 0.2 mg/kg.

For experiment [2], the target named is T2, 3-hydroxy-3-methylglutaryl-coenzyme A reductase (Rattus norvegicus, UniProt P51639).
T2 sequence (P51639 whole entry): T1 sequence (whole entry)
As to the kind of experiment: In vitro HMG-CoA reductase inhibitory activity to inhibit sterol synthesis in cell free system in rat.

Experiment [3] deals with T1, 3-hydroxy-3-methylglutaryl-coenzyme A reductase (Rattus norvegicus). As to the kind of experiment: In vivo hepatic cholesterol synthesis inhibitory activity in male Sprague-Dawley rat after oral administration at a concentration of 2.0 mg/kg. Further details: dose 2 mg/kg. Format: functional, organism-based.
Experiment [4] concerns the target T3, 3-hydroxy-3-methylglutaryl-coenzyme A reductase (Homo sapiens) (UniProt P04035).
T3 sequence (whole entry): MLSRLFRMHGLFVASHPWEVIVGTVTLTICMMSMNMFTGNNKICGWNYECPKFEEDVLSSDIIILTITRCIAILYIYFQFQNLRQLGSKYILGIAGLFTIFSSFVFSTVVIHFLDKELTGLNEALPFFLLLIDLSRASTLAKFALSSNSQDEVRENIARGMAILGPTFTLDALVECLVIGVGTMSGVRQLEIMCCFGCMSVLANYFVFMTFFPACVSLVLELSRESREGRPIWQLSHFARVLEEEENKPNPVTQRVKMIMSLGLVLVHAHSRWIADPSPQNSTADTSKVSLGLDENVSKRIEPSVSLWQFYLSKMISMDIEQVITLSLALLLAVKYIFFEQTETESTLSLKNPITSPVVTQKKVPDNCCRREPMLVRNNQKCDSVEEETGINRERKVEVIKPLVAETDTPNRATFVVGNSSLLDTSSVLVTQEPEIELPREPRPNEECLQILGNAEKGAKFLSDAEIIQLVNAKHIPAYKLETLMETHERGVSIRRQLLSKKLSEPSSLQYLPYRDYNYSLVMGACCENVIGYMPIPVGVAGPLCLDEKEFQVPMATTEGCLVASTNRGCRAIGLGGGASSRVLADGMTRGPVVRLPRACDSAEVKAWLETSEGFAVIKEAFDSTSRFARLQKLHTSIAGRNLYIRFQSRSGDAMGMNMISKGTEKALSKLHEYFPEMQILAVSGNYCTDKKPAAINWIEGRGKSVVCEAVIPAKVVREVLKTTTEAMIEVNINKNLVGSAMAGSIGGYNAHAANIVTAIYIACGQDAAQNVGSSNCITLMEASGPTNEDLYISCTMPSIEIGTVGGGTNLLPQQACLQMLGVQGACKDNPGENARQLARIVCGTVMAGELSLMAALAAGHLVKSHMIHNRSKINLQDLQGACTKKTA
Put plainly: In vitro HMG-CoA reductase inhibitory activity required to inhibit cellular steroidgenesis in Hep G2 cells (human hepatoma cell line) with pravastatin as reference compound. The settings on record: HepG2. Format: cell-based.

For experiment [5], the target named is T1, 3-hydroxy-3-methylglutaryl-coenzyme A reductase (Rattus norvegicus). As to the kind of experiment: In vitro rat HMG-CoA reductase inhibitory activity required to inhibit sterol synthesis in cell free system with pravastatin as reference compound.

Consider `CC[C@H](C)C(=O)O[C@H]1C[C@H](O)C=C2C=C[C@H](C)[C@H](CC[C@@H](O)C[C@@H](O)CC(=O)O)[C@H]21` [PRAVASTATIN SODIUM], for which the inhibition in experiment [1] is 35.4%; in experiment [3], 27.8%. Moreover, the IC50 in experiment [2] stood at 4.2 nM.
Regarding `Cc1nn(C(C)(C)C)c2nc(C3CC3)c(/C=C/[C@@H](O)C[C@@H](O)CC(=O)O)c(-c3ccc(F)cc3)c12`, the inhibition is 4.5% in experiment [1] and 72.2% in experiment [3]. For the same compound, the Relative potency was 11 in experiment [4] and 168 in experiment [5].
For `Cc1nn(Cc2ccccc2)c2nc(C(C)C)c(/C=C/[C@@H](O)C[C@@H](O)CC(=O)O)c(-c3ccc(F)cc3)c12`, in that order: 16.4%, 45.1%, 17 and 63.
Turning to `CC(C)c1nc2cc(-c3ccccc3)nn2c(-c2ccc(F)cc2)c1/C=C/[C@@H](O)C[C@@H](O)CC(=O)O`, the inhibition is -1.4% in experiment [1] and 24.1% in experiment [3]. Besides, the Relative potency in experiment [4] was 3; in experiment [5] it was 12.
With `CC(C)c1nc2c(c(C3CC3)nn2C)c(-c2ccc(F)cc2)c1/C=C/[C@@H](O)C[C@@H](O)CC(=O)O`, the inhibition in experiment [1] is 42.9%; in experiment [3] it was 71.3%. For the same compound, the figures for the Relative potency in experiment [4] and in experiment [5] were 1 and 42, respectively.
As for `CCc1c(C)sc2nc(C(C)C)c(/C=C/[C@@H](O)C[C@@H](O)CC(=O)O)c(-c3ccc(F)cc3)c12`, the inhibition in experiment [1] amounted to 7.9%; in experiment [3], 20.8%. The results for the Relative potency in experiment [4] and in experiment [5] were 51 and 35, respectively.
Take `Cc1nn(C)c2nc(C3CC3)c(/C=C/[C@@H](O)C[C@@H](O)CC(=O)O)c(-c3ccc(F)cc3)c12`: the values for the inhibition in experiment [1] and in experiment [3] were 35.5% and 74.3%, respectively. Moreover, the Relative potency in experiment [4] amounted to 118; in experiment [5], 228.
Turning to `CC(C)c1nc2c(c(-c3ccccc3)nn2C)c(-c2ccc(F)cc2)c1/C=C/[C@@H](O)C[C@@H](O)CC(=O)O`, the results for the inhibition in experiment [1] and in experiment [3] were 37% and 71.1%, respectively. Moreover, the Relative potency in experiment [4] is 6; in experiment [5] it was 21.

As a reminder, the inhibition is the drop in the measured response relative to a control, in per cent. As a reminder, the IC50 is the concentration that gives 50% inhibition.
